Data: patent US20150342921A1, “METFORMIN-ORLISTAT COMPOSITIONS” (LANDSTEINER SCIENTIFIC S.A. DE C.V., priority 2012, published 2015)

Columns and labels:
clinical = conditions: both, human, in vivo
Description: All subjects agreed to participate in the study and were considered as healthy, all as determined through detection tests including medical history, physical examination, electrocardiogram, hematic biometry, blood chemistry with 24 elements, detection of drug abuse, general urine exam as well as hepatitis B and HIV tests. Vital signs were considered normal with blood pressure of 50-90/84-120 mmHg, heart rate of 50-100 pulses/min, breathing rate was 14-25 breaths/min, and tympanic temperature of 36-37.8° C. […] Smokers, pregnant women and subjects with a clinical history of hypersensitivity to drugs, foods or environmental substances were not included.
The prospective and longitudinal study was performed in a crossed and balanced, randomized design with two sequences, two periods, a single dose, single blind with a wash out period of 1 week between treatments. […] After dosing, serial blood samples were collected and vital signs monitored during a period of 24 hours. Blood samples of 10 mL each were extracted at 0, 0.25, 0.5, 0.75, 1, 1.25, 1.5, 1.75, 2, 3, 4, 6, 8, 12 and 24 hours after administration. Vital signs were measured at 0, 1, 2, 3, 4, 6, 8, 12 and 24 hours after dosing. Subjects were held for 36 hours and monitored for safety and adverse effects throughout the study. Volunteers received a diet calculated at 3000 cal/day in each period. […]

[1] = after two treatment periods, 26 volunteers, single dose; 7 in total, all light
Description: All subjects agreed to participate in the study and were considered as healthy, all as determined through detection tests including medical history, physical examination, electrocardiogram, hematic biometry, blood chemistry with 24 elements, detection of drug abuse, general urine exam as well as hepatitis B and HIV tests. […] Smokers, pregnant women and subjects with a clinical history of hypersensitivity to drugs, foods or environmental substances were not included.
The prospective and longitudinal study was performed in a crossed and balanced, randomized design with two sequences, two periods, a single dose, single blind with a wash out period of 1 week between treatments. […] After dosing, serial blood samples were collected and vital signs monitored during a period of 24 hours. […] Vital signs were measured at 0, 1, 2, 3, 4, 6, 8, 12 and 24 hours after dosing. Subjects were held for 36 hours and monitored for safety and adverse effects throughout the study. Volunteers received a diet calculated at 3000 cal/day in each period.

[2] = cited from earlier work

Structure (SMILES)	Cmax (clinical; 500 mg) [ng/mL]	Tmax (clinical; po) [h]	Number of adverse effects [1]	Excreted with no changes in the urine ([2]; in vivo) [%]	Dietetic fat excreted in feces ([2]; in vivo)	Excreted in feces ([2]; in vivo) [%]	Oral bioavailability ([2]; metformin when fasting, orlistat administered orally)
CN(C)C(=N)N=C(N)N [Metformin]	1390 ± 440	2.41	3	~90	–	–	–
CCCCCCCCCCC[C@@H](C[C@@H]1OC(=O)[C@H]1CCCCCC)OC(=O)[C@H](CC(C)C)NC=O [Orlistat]	–	–	–	–	up to 30%	~97	below 5%
